Tests used:
IRAK4 [1] = target: T1, IRAK4 (Homo sapiens (Human), UniProt Q9NWZ3); experiment: Biochemical Z'-Lyte FRET assay for IRAK4 kinase inhibition; conditions: 2 nM enzyme, 1 mM ATP, 2 μM substrate
In short: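 Z′-Lyte FRET phosphorylation of Ser/Thr 7 peptide (2 µM) by 2 nM recombinant IRAK4 at 1 mM ATP in HEPES pH 7.5 with MgCl2/MnCl2, after 10 min enzyme–compound preincubation; 1 h at room temperature, then 1 h development, 460/530 nm emission. Duplicate 12-point, 3-fold curves from 30 µM; IC50 from percent inhibition against ±100% controls.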

IRAK4 [2] = target: T1, IRAK4; experiment: Western blot assay for assessing degradation of IRAK4 in MCF7 cells; type: cell-based
In short: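 MCF7 cells were treated 24 h with serially diluted compound (0.1% DMSO final), then lysed in RIPA. IRAK4 and IRAK1 levels were measured by western blot with β-actin probed alongside. Percent degradation compared compound-treated with DMSO-treated lysates.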

IRAK4 [3] = target: T1, IRAK4; experiment: ELISA assay for IRAK4 degradation in MCF7 cells; type: cell-based; conditions: Table 1, 24 hours
Description: Enzyme-Linked Immunosorbent Assay (ELISA) Assay for IRAK4 Degradation.
MCF7 cells, purchased from ATCC (Manassas, Va.), were used at a passage range of 2-19. Cells were prepared and treated with compounds for 24 hours, exactly as described above for the Western blots. The ELISA assay was performed using the kit and instructions described by Abcam (cat. #: ab213472, Abcam Biotechnology, Cambridge, Mass.). Table 1 below provides and compares the ELISA IRAK4 degradation data to the western blot IRAK 4 degradation data for Examples 2, 3, 4, and 5. Furthermore, FIG. 5 is a graph illustrating the ELISA IRAK4 degradation data.

IRAK4 [4] = target: T1, IRAK4; experiment: Western blots of IRAK4 protein degradation; type: cell-based; conditions: from western blots
IRAK1 [5] = target: T2, IRAK1 (Homo sapiens (Human), UniProt P51617); experiment: Western blots of IRAK1 protein degradation; type: cell-based
T2 sequence (P51617 whole entry): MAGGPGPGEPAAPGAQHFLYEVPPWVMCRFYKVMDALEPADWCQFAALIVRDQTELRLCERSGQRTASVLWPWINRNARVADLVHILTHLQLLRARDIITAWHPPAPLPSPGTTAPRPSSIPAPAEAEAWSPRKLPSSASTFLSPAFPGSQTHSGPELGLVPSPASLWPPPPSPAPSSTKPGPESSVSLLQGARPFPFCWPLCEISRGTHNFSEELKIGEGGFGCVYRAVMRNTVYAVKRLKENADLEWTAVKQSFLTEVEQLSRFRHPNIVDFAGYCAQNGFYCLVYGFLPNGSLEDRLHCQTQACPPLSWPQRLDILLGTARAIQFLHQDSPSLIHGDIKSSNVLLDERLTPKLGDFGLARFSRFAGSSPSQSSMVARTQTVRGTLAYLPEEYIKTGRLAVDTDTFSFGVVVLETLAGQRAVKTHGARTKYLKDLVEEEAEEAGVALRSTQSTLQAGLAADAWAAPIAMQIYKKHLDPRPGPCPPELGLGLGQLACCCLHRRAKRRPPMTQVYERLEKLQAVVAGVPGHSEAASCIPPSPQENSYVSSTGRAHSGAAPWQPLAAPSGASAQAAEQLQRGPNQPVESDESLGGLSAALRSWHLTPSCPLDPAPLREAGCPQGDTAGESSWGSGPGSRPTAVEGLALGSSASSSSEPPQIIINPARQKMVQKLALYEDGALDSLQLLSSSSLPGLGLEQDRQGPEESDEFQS

IRAK1 [6] = target: T2, IRAK1; experiment: Western blot assay for degradation of IRAK1 in MCF7 cells; type: cell-based
[7] = Table 1, 24 hours, read-out: IRAK4 by western DC50
[8] = Table 5, IRAK4 degradation, 24 hour incubation, read-out: IRAK4 DC50
[9] = Table 5, IRAK4 degradation, 24 hour incubation, read-out: IRAK4 Dmax (%)
[10] = western blot, 24 hour incubation, read-out: Dmax (IRAK4 degradation)

T1 sequence (Q9NWZ3 whole entry): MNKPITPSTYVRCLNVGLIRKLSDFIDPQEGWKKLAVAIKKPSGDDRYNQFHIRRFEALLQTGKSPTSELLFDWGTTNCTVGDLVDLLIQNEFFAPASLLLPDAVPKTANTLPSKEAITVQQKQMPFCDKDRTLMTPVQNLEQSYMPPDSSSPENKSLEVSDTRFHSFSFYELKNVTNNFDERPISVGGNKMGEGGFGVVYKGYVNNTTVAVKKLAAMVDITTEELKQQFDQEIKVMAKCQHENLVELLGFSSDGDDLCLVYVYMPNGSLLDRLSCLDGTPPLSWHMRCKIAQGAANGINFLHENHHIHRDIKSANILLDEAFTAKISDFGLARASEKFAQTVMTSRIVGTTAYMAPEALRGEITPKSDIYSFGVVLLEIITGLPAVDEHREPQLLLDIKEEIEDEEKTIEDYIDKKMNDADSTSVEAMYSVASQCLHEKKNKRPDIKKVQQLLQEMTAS

Row | IC50 (IRAK4 [1]) [µM] | IRAK4 by western % degraded (IRAK4 [2]; Table 1, 24 hours) [%] | DC50 (IRAK4 [2]; [7]) [µM] | DC50 (IRAK4 [2]; [8]) [µM] | Dmax (IRAK4 [2]; [9]) [%] | IRAK4 by ELISA % degraded (IRAK4 [3]) [%] | DC50 (IRAK4 [4]) [µM] | Dmax (IRAK4 [4]) [%] | degradation of IRAK1 (IRAK1 [5]) | DC50 (IRAK4 [2]; western blot, 24 hour incubation, read-out: DC50 (IRAK4 degradation)) [µM] | Dmax (IRAK4 [2]; [10]) [%] | IRAK1 protein degradation (IRAK1 [6]) | Compound
1 | < 0.03 | 76 | 0.04 | 0.03 to 0.1 | 50 to 70 | 80 |  |  |  |  |  |  | O=C1CCC(N2C(=O)c3ccc(OCCOCCOCCOCCOCCN4CCN(Cc5ccc6c(c5)nc(NC(=O)c5cccc(C(F)(F)F)c5)n6[C@H]5CC[C@@H](CO)CC5)CC4)cc3C2=O)C(=O)N1 (some centres unmarked) [compound 5, N-(5-((4-(14-((2-(2,6-dioxopiperidin-3-yl)-1,3-dioxoisoindolin-5-yl)oxy)-3,6,9,12-tetraoxatetradecyl)piperazin-1-yl)methyl)-1-((1s,4s)-4-(hydroxymethyl)cyclohexyl)-1H-benzo[d]imidazol-2-yl)-3-(trifluoromethyl)benzamide]
2 |  |  |  |  |  |  | 0.0097 | 71 | no significant degradation was observed |  |  |  | O=C1CCC(N2C(=O)c3ccc(OCCOCCN4CCN(Cc5ccc6c(c5)nc(NC(=O)c5cccc(C(F)(F)F)c5)n6C5CCC(CO)CC5)CC4)cc3C2=O)C(=O)N1 (centres unmarked) [Exemplary Compound 2, N-(5-((4-(2-(2-((2-(2,6-dioxopiperidin-3-yl)-1,3-dioxoisoindolin-5-yl)oxy)ethoxy)ethyl)piperazin-1-yl)methyl)-1-((1s,4s)-4-(hydroxymethyl)cyclohexyl)-1H-benzo[d]imidazol-2-yl)-3-(trifluoromethyl)benzamide]
3 | < 0.03 | 80 | 0.023 | < 0.03 | > 70 | 86 |  |  |  | 0.023 | 80 | no significant degradation was observed | O=C1CCC(N2C(=O)c3ccc(OCCOCCOCCN4CCN(Cc5ccc6c(c5)nc(NC(=O)c5cccc(C(F)(F)F)c5)n6[C@H]5CC[C@@H](CO)CC5)CC4)cc3C2=O)C(=O)N1 (some centres unmarked) [compound 3, N-(5-((4-(2-(2-(2-((2-(2,6-dioxopiperidin-3-yl)-1,3-dioxoisoindolin-5-yl)oxy)ethoxy)ethoxy)ethyl)piperazin-1-yl)methyl)-1-((1s,4s)-4-(hydroxymethyl)cyclohexyl)-1H-benzo[d]imidazol-2-yl)-3-(trifluoromethyl)benzamide]
4 |  | 71 |  |  | 50 to 70 | 76 |  |  |  |  | 71 | no significant degradation was observed | O=C1CCC(N2C(=O)c3ccc(OCCOCCN4CCN(Cc5ccc6c(c5)nc(NC(=O)c5cccc(C(F)(F)F)c5)n6C5CCC(CO)CC5)CC4)cc3C2=O)C(=O)N1 (centres unmarked) [compound 2, N-(5-((4-(2-(2-((2-(2,6-dioxopiperidin-3-yl)-1,3-dioxoisoindolin-5-yl)oxy)ethoxy)ethyl)piperazin-1-yl)methyl)-1-((1s,4s)-4-(hydroxymethyl)cyclohexyl)-1H-benzo[d]imidazol-2-yl)-3-(trifluoromethyl)benzamide]
